Data: patent US11028087B2, “2,6-disubstituted-9-cyclopentyl-9H-purines, use thereof as medicaments, and pharmaceutical compositions” (UNIVERZITA PALACKEHO V OLOMOUCI, priority 2017, dated 2021)
Like-named read-outs stand apart in the source and are kept apart here. Blank lines part the entries; values can stand above or below the compound they belong to.

Experiments:
K562 = assay: Calcein AM cytotoxicity assay; type: cell-based; details: Homo sapiens
Description: (§1) Cytotoxicity of the compounds is the major property determining their anticancer effect in vivo. One of the parameters used, as the basis for cytotoxicity assays, is the integrity of cytoplasmic membrane of viable cells. For example, a microtiter assay, which uses acetomethoxy derivate of calcein (Calcein AM), is widely used for evaluation of cell proliferation and cytotoxicity. This assay is used in drug screening programs and in chemosensitivity testing. Intracellular esterases of viable cells convert calcein AM to green-fluorescent calcein of which signal corresponds to the number of viable cells in the culture.
(§2) We have been using the following cell lines: MV4-11 (acute myeloid leukemia, FLT3-ITD positive), MOLM-13 (acute myeloid leukemia, FLT3-ITD positive), THP-1 (acute myeloid leukemia, wt FLT3), U937 (monocytic leukemia, wt FLT3), EOL-1 (eosinophilic leukaemia, carrying the fusion FIP1L1-PDGFRA), H1703 (non-small cell lung carcinoma, PDGFRA amplification). […] K562 and MCF-7 cell lines were maintained in DMEM supplemented with 10% fetal bovine serum, penicilin (100 U/ml) and streptomycin (100 μg/ml). All cell lines were cultivated at 37° C. in 5% CO2. For cytotoxicity assays, cells were seeded in appropriate densities into 96 well plates and the next day tested compounds were added at various concentrations in triplicates. Three days after drug addition, Calcein AM solution (final concentration 1 μg/ml; Thermo Scientific, USA) was added into each well and incubated for 1 h.

[1] = tested on: EOL-1 (eosinophilic leukaemia, carrying the fusion FIP1L1-PDGFRA); assay: Calcein AM cytotoxicity assay; type: cell-based; details: Homo sapiens
Description: as §1, §2

MCF-7 = assay: Calcein AM cytotoxicity assay; type: cell-based; details: Homo sapiens
Description: as §1, §2

[2] = tested on: U937 (monocytic leukemia, wt FLT3); assay: Calcein AM cytotoxicity assay; type: cell-based; details: Homo sapiens
Description: as §1, §2

[3] = tested on: MV4-11 (acute myeloid leukemia, FLT3-ITD positive); assay: Calcein AM cytotoxicity assay; type: cell-based; details: Homo sapiens
Description: as §1, §2

[4] = tested on: THP-1 (acute myeloid leukemia, wt FLT3); assay: Calcein AM cytotoxicity assay; type: cell-based; details: Homo sapiens
Description: as §1, §2

[5] = tested on: MOLM-13 (acute myeloid leukemia, FLT3-ITD positive); assay: Calcein AM cytotoxicity assay; type: cell-based; details: Homo sapiens
Description: as §1, §2

CDK2/Cyclin E = molecular target: T1, CDK2/Cyclin E (Homo sapiens, UniProt P24941); assay: Kinase inhibition assay with [γ-33P]ATP; type: biochemical
T1 construct: made in house; host or cells: Sf9 insect cells, baculoviral infection
Procedure: (§3) CDK1/Cyclin B and CDK2/Cyclin E kinases were produced in Sf9 insect cells via baculoviral infection and purified on a NiNTA column (Qiagen). CDK5/p35 and CDK7Cyclin H/MAT1, FLT3 WT, FLT3-ITD and FLT3 D835 were purchased from ProQinase GmbH. The kinase reactions were assayed with 1 mg/mL histone H1 (for CDK1, CDK2 and CDK5), (YSPTSPS)2KK peptide (for CDK7) or AGLT substrate (for FLT3) in the presence of 15/15/0.15/1.5/1 μM ATP (for CDK1/CDK2/CDK5/CDK7/FLT3), 0.05 μCi [γ-^33P]ATP and of the test compound in a final volume of 10 μL, all in a reaction buffer (60 mM HEPES-NaOH, pH 7.5, 3 mM MgCl2, 3 mM MnCl2, 3 μM Na-orthovanadate, 1.2 mM DTT, 2.5 μg/50 μl PEG20,000). The reactions were stopped by adding 5 μL of 3% aq H3PO4. Aliquots were spotted onto P-81 phosphocellulose (Whatman), washed 3× with 0.5% aq H3PO4 and finally air-dried.

FLT3-ITD = molecular target: T2, FLT3-ITD (Homo sapiens, UniProt P36888); assay: Kinase inhibition assay with [γ-33P]ATP; type: biochemical; details: comparative example; read-out: Influence of compounds on protein kinase inhibition, IC50 values (μM) FLT3 ITD
T2 sequence (P36888 1-993): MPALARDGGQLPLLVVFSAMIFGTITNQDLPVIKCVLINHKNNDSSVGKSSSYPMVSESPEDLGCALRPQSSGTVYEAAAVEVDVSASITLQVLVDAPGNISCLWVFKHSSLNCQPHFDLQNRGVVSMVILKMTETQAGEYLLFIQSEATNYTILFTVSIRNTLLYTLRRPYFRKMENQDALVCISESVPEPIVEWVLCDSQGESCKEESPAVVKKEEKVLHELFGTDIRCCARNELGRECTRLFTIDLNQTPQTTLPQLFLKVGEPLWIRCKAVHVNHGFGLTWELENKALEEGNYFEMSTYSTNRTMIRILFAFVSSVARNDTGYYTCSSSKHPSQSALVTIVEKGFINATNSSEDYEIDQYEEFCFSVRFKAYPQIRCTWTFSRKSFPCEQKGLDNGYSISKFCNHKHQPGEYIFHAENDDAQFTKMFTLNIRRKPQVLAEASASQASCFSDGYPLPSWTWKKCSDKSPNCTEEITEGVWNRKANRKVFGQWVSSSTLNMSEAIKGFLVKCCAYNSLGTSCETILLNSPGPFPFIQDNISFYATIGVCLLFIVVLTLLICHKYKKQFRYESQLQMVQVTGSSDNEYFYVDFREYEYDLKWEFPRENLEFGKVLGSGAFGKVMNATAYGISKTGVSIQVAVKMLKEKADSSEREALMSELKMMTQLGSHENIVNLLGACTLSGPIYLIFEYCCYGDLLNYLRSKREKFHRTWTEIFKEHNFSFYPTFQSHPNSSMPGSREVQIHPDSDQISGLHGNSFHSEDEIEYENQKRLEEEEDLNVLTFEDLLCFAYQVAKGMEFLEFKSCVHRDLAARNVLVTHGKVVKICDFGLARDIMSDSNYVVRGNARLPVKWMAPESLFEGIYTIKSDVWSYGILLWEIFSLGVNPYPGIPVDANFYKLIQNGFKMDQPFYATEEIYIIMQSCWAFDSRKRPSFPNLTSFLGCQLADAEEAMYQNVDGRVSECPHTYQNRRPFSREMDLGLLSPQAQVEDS
Procedure: as §3

[6] = tested on: Kasumi-1 (acute myeloid leukemia, KIT mutation Asn822Lys); assay: Calcein AM cytotoxicity assay; type: cell-based; details: Homo sapiens, 72 h; Kasumi-1; Calcein AM, three days; read-out: EC50 values (μM) Kasumi-1
Description: as §1
We have been using the following cell lines: MV4-11 (acute myeloid leukemia, FLT3-ITD positive), MOLM-13 (acute myeloid leukemia, FLT3-ITD positive), THP-1 (acute myeloid leukemia, wt FLT3), U937 (monocytic leukemia, wt FLT3), EOL-1 (eosinophilic leukaemia, carrying the fusion FIP1L1-PDGFRA), H1703 (non-small cell lung carcinoma, PDGFRA amplification). They were maintained in RPMI-1640 supplemented with 10% fetal bovine serum, penicillin (100 U/ml) and streptomycin (100 μg/ml). Kasumi-1 (acute myeloid leukemia, KIT mutation Asn822Lys) cells were cultivated in RPMI-1640 supplemented with 15% fetal bovine serum, penicillin (100 U/ml) and streptomycin (100 μg/ml). K562 and MCF-7 cell lines were maintained in DMEM supplemented with 10% fetal bovine serum, penicilin (100 U/ml) and streptomycin (100 μg/ml). All cell lines were cultivated at 37° C. in 5% CO2. For cytotoxicity assays, cells were seeded in appropriate densities into 96 well plates and the next day tested compounds were added at various concentrations in triplicates. Three days after drug addition, Calcein AM solution (final concentration 1 μg/ml; Thermo Scientific, USA) was added into each well and incubated for 1 h. After this incubation period, fluorescence of the live cells was measured at 485 nm/538 nm (ex/em) with a Fluoroskan Ascent microplate reader (Labsystems).

CDK5/p35 = molecular target: T3, CDK5/p35 (Homo sapiens, UniProt Q00535); assay: Kinase inhibition assay with [γ-33P]ATP; type: biochemical; details: histone H1, 0.15 μM ATP
T3 construct: purchased ProQinase GmbH
T3 sequence (Q00535 whole entry): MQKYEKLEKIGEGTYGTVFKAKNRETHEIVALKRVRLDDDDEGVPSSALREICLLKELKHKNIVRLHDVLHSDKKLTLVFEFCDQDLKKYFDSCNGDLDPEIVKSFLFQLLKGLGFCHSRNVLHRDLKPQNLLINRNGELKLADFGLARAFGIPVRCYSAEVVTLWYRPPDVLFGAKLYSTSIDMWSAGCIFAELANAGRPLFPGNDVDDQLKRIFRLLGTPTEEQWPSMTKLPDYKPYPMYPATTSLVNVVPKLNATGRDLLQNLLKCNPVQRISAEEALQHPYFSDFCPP
T3 sequence (Q15078 whole entry partner): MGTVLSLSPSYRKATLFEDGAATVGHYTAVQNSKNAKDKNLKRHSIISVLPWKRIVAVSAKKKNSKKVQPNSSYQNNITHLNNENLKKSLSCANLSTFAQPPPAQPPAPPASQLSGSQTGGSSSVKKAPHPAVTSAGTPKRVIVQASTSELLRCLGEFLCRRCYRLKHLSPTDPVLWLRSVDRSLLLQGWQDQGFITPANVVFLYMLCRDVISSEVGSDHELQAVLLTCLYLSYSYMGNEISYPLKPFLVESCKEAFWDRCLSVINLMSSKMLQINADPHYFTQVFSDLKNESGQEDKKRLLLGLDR
Procedure: as §3

CDK1/Cyclin B = molecular target: T4, CDK1/Cyclin B (Homo sapiens, UniProt P06493); assay: Kinase inhibition assay with [γ-33P]ATP; type: biochemical; details: histone H1, 15 μM ATP
T4 construct: made in house; host or cells: Sf9 insect cells, baculoviral infection
T4 sequence (P06493 whole entry, species assumed): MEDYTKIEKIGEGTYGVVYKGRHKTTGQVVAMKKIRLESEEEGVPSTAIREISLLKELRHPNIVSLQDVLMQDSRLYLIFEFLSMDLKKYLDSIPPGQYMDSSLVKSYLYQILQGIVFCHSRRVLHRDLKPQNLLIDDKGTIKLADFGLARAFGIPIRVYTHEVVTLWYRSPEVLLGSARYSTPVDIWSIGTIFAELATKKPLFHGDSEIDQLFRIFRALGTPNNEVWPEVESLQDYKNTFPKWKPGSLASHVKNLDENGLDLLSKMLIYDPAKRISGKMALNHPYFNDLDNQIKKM
T4 sequence (P14635 whole entry partner, species assumed): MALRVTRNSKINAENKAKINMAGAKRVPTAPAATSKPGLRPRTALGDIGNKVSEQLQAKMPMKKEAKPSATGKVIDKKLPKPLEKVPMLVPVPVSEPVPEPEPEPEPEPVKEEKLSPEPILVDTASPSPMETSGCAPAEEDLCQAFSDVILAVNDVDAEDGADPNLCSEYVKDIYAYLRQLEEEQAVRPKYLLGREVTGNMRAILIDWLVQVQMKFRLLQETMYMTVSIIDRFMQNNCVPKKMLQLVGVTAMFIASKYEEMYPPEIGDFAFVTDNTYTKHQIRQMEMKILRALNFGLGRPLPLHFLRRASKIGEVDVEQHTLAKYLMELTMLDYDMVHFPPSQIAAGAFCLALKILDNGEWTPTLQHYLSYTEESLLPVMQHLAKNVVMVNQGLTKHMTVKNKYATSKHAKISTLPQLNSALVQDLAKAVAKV
Procedure: as §3

FLT3 WT = molecular target: T5, FLT3 WT (Homo sapiens, UniProt P36888); assay: Kinase inhibition assay with [γ-33P]ATP; type: biochemical; details: AGLT substrate, 1 μM ATP
T5 construct: purchased ProQinase GmbH
T5 sequence (P36888 27-993): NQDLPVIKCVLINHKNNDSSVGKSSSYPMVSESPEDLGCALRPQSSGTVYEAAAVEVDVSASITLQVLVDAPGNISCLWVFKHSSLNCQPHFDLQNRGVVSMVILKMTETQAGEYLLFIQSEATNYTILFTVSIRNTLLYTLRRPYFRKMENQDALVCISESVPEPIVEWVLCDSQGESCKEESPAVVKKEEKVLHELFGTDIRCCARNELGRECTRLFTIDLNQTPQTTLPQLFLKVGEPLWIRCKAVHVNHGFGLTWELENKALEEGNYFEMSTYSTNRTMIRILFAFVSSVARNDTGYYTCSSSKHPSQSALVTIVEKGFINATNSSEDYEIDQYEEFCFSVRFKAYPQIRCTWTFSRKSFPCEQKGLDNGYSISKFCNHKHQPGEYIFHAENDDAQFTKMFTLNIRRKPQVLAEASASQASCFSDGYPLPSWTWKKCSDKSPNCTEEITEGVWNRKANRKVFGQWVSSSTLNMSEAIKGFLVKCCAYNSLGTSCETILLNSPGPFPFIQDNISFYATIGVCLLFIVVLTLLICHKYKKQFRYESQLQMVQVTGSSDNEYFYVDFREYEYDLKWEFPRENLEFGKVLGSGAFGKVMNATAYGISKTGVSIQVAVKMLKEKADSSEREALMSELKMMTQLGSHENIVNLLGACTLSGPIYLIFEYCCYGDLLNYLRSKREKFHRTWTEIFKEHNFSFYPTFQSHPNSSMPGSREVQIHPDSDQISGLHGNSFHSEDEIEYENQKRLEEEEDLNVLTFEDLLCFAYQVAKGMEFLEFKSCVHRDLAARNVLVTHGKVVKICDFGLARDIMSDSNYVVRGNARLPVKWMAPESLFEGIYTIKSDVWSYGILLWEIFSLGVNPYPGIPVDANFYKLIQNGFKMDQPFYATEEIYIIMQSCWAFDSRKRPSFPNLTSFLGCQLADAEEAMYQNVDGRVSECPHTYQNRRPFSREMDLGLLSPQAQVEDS
Procedure: as §3

IC50 (CDK2/Cyclin E; comparative example, read-out: Influence of compounds on protein kinase inhibition, IC50 values (μM) CDK2): 7.51 µM
IC50 (FLT3-ITD): 1.03 µM
SMILES: NC1CCC(Nc2nc(Nc3ccc(CN4CCOCC4)cc3)c3ncn(Cc4ccccc4)c3n2)CC1 (stereo not drawn) [Benzyl derivative of compound 264, reference compound]
EC50 (K562; comparative example, K562, 72 h, read-out: Influence of compounds on proliferation (72 h), EC50 values (μM) K562): 2.69 µM
EC50 ([1]; EOL1, comparative example, EOL-1, 72 h, read-out: Influence of compounds on proliferation (72 h), EC50 values (μM) EOL-1): 0.491 µM
EC50 (MCF-7; MCF7, comparative example, MCF-7, 72 h, read-out: Influence of compounds on proliferation (72 h), EC50 values (μM) MCF-7): 4.83 µM
EC50 ([2]; U-937, comparative example, U937, 72 h, read-out: Influence of compounds on proliferation (72 h), EC50 values (μM) U937): 2.62 µM
EC50 ([3]; comparative example, MV4-11, 72 h, read-out: Influence of compounds on proliferation (72 h), EC50 values (μM) MV4-11): 0.393 µM
EC50 ([4]; comparative example, THP-1, 72 h, read-out: Influence of compounds on proliferation (72 h), EC50 values (μM) THP-1): 14.8 µM
EC50 ([5]; comparative example, MOLM-13, 72 h, read-out: Influence of compounds on proliferation (72 h), EC50 values (μM) MOLM-13): 1.26 µM

IC50 (CDK2/Cyclin E; histone H1, 15 μM ATP, read-out: IC50 values (μM) CDK2): 3.56 µM
IC50 (CDK5/p35): 8.16 µM
IC50 (CDK1/Cyclin B): 6.16 µM
IC50 (FLT3 WT): 0.021 µM
SMILES: NCCCCCCNc1nc(Nc2ccc(CN3CCOCC3)cc2)c2ncn(C3CCCC3)c2n1 [Compound 38]
EC50 [6]: 1.23 µM
EC50 (K562; 72 h, K562, Calcein AM, three days, read-out: EC50 values (μM) K562): 4.57 µM
EC50 ([1]; EOL1, 72 h, EOL-1, Calcein AM, three days, read-out: EC50 values (μM) EOL-1): 0.276 µM
EC50 (MCF-7; MCF7, 72 h, MCF-7, Calcein AM, three days, read-out: EC50 values (μM) MCF-7): 5.55 µM
EC50 ([2]; U-937, 72 h, U937, Calcein AM, three days, read-out: EC50 values (μM) U937): 2.92 µM
EC50 ([3]; 72 h, MV4-11, Calcein AM, three days after drug addition, read-out: EC50 values (μM) MV4-11): 0.086 µM
EC50 ([4]; 72 h, THP-1, Calcein AM, three days, read-out: EC50 values (μM) THP-1): 3.59 µM
EC50 ([5]; 72 h, MOLM-13, Calcein AM, three days, read-out: EC50 values (μM) MOLM-13): 0.064 µM
